# Reference: ChEMBL document CHEMBL3352739, “Comparative in vivo evaluation of polyalkoxy substituted 4H-chromenes and oxa-podophyllotoxins as microtubule destabilizing agents in the phenotypic sea urchin embryo assay” (2014)
# Tests used:
# Paracentrotus lividus [1] = test: Antimitotic microtubule destabilizing activity in Paracentrotus lividus L embryos assessed as induction of cleavage alteration
# Paracentrotus lividus [2] = test: Antimitotic microtubule destabilizing activity in Paracentrotus lividus L embryos assessed as induction of cleavage arrest
# Paracentrotus lividus [3] = test: Antimitotic microtubule destabilizing activity in Paracentrotus lividus L embryos assessed as induction of embryo spinning
# [4] = Cytotoxicity against human NCI60 cells assessed as mean cell growth at 10 uM; type: functional
Structure (SMILES),EC (Paracentrotus lividus [1]),EC (Paracentrotus lividus [2]),EC (Paracentrotus lividus [3]),Activity [4]
COc1ccc(C2C(C#N)=C(N)Oc3cc(O)ccc32)cc1 (stereo not given),> 4 µM,> 4 µM,> 4 µM,96%
CCOc1ccccc1C1C(C#N)=C(N)Oc2cc(OC)ccc21 (stereo not given),0.02 µM,0.2 µM,0.5 µM,
COc1ccc2c(c1)OC(N)=C(C#N)C2c1cc2c(c([N+](=O)[O-])c1)OCCO2 (stereo not given),0.02 µM,0.1 µM,1 µM,
COc1cccc([C@@H]2C(C#N)=C(N)Oc3cc(OC)ccc32)c1,0.05 µM,0.5 µM,4 µM,

# The next lines start with results.
EC (Paracentrotus lividus [1]),EC (Paracentrotus lividus [2]),EC (Paracentrotus lividus [3]),Structure (SMILES),Activity [4]
0.005 µM,0.02 µM,0.1 µM,COc1ccc2c(c1)OC(N)=C(C#N)C2c1cc(OC)c2c(c1)OCCO2 (stereo not given),
0.5 µM,> 4 µM,> 5 µM,COc1ccccc1C1C(C#N)=C(N)Oc2cc(O)ccc21 (stereo not given),
0.1 µM,2 µM,> 5 µM,COc1cccc(C2C(C#N)=C(N)Oc3cc(O)ccc32)c1 (stereo not given),
4 µM,> 4 µM,> 4 µM,COc1c(C2C(C#N)=C(N)Oc3cc(O)ccc32)cc2c(c1OC)OCO2 (stereo not given),
